In US8268366B2, “Cosmetic composition containing salt-fermented extract of natural materials” (Amorepacific Corporation, priority 2008, dated 2012):

Legend:
collagenase = assay: Measurement of collagenase expression inhibitory activity in human fibroblasts; assay type: cell-based; settings: human fibroblasts treated at 10^−4 mole for 24 hours; untreated control group set as 100
Description: The collagenase expression inhibitory activity of the extracts of natural materials, prepared in Comparative Examples 1 and 2, and the salt-fermented extracts of natural materials, prepared in Examples 1 to 7, were measured comparatively with those of tocopherol and EGCG. […] Tocopherol and EGCG, which are antioxidant substances, are known to prevent skin aging by regenerating the epidermal cells of the skin.
In the test, human fibroblasts were seeded into a 96-well microtiter plate containing DMEM (Dulbecco's Modified Eagle's Media) medium containing 2.5% fetal bovine serum to a density of 5,000 cells/well and were cultured to a confluence of about 90%. […]
The collected cell culture broths were measured for collagenase production using a commercially available collagenase measurement device (Amersham Phamasia, USA). […]
The absorbance of the 96-well plate having a yellow color was measured at 405 nm using an absorbance spectrometer, and the degree of synthesis of collagenase was calculated according to the following Equation 1. Herein, the absorbance of the cell culture broth collected from the group not treated with the composition was used as a control. That is, the expression of collagenase in the control group was set as 100, and the expression of collagenase in the group treated with the composition was calculated relative to the control group.

procollagen = assay: Test of the effect of promoting procollagen production in human fibroblasts; assay type: cell-based; settings: human fibroblasts treated at 10^−4 mole for 24 hours; procollagen type-1 C-peptide EIA; untreated control group set as 100
Description: Procollagen is a collagen production-inducing substance necessary for collagen production and aging prevention, and if the degree of production of procollagen is high, the degree of production of collagen is also high, and thus the production of skin wrinkles can be prevented. Also, vitamin C is known as a component essential for the synthesis of collagen. […] The cell culture broths were then collected. After 24 hours, the amount of released procollagen in the medium was measured with a procollagen type-1 C-peptide EIA kit (MK101, Takara, Japan). Based on the measurement results, the production of procollagen was calculated according to the following Equation 2. Herein, the production of procollagen collected from the group not treated with the composition was used as a control group. […] [formula]

| Compound | Collagenase expression (%) (collagenase) | Procollagen production (%) (procollagen) |
| --- | --- | --- |
| O=C(O[C@@H]1Cc2c(O)cc(O)cc2O[C@@H]1c1cc(O)c(O)c(O)c1)c1cc(O)c(O)c(O)c1 [EGCG] | 60% | – |
| tocopherol | 75% | – |
| O=C1O[C@H]([C@@H](O)CO)C(O)=C1O [Vitamin C, vitamin C] | – | 120% |
